In data set [1] the target is T1, hERG (Kv11.1, KCNH2) (Homo sapiens, UniProt Q12809). Nature of the data set: in vitro.
Description: MMV: Malaria Box compounds were tested for inhibition of the human ether a go-go related gene (hERG), Kv11.1 channel, using IonWorks 384-well patch clamp electrophysiology at 11.1uM (3 independent assay plates up to 12 cells per concentration).
In data set [2] the target is T1, hERG (Kv11.1, KCNH2). Nature of the data set: in vitro. This is another data set of the same source.
Description: MMV: Malaria Box compounds were tested for inhibition of the human ether a go-go related gene (hERG), Kv11.1 channel, using IonWorks 384-well patch clamp electrophysiology at 1.1uM (3 independent assay plates up to 12 cells per concentration).

Calls of active or inactive are those of the source. How the calls were made is not given here.

T1 sequence (Q12809 whole entry): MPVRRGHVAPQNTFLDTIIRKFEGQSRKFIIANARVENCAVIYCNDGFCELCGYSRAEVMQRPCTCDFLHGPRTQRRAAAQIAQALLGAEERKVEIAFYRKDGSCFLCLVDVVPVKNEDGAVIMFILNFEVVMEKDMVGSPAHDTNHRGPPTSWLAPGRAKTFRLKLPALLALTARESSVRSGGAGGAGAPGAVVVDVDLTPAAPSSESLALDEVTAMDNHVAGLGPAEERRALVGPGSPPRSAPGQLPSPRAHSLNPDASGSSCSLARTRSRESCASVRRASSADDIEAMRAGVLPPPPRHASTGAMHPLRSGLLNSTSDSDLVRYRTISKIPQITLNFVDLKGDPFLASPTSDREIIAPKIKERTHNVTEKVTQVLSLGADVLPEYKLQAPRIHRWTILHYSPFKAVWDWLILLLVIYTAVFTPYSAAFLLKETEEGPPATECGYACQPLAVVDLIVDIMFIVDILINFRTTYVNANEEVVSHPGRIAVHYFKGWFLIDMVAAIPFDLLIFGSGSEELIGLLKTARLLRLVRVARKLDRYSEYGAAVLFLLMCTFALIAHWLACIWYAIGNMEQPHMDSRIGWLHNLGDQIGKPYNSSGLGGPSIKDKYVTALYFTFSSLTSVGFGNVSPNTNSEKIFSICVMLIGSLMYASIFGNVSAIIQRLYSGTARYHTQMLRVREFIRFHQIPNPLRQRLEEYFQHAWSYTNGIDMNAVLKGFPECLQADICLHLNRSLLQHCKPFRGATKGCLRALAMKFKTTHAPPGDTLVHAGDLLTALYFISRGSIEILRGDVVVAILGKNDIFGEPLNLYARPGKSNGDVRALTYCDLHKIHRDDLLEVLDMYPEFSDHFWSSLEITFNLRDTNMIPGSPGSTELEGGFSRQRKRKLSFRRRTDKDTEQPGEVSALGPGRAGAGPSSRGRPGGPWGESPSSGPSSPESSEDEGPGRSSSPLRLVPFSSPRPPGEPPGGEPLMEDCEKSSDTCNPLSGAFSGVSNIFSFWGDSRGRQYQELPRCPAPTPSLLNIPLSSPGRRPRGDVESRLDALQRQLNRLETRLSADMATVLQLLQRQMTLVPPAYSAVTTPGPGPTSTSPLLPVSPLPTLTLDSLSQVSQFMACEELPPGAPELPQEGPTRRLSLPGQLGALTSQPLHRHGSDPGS

Consider `COc1ccc(Nc2nc(N/N=C/c3ccc(O)cc3)nc(Nc3ccc([N+](=O)[O-])cc3)n2)cc1`, for which the inhibition at 11.1 µM in data set [1] was 70% (active). Also, the inhibition at 1.1 µM in data set [2] was 17%.
On the same counts, the results for `COc1ccc(C2c3ccc4ccccc4c3Oc3ncn(CCCN(C)C)c(=N)c32)cc1` (centres undefined) are 86% (active) and 32%.
On the same counts, the results for `CSC1=NC(=Nc2c(C)cccc2C)C2(CCC(C(C)(C)C)CC2)N1c1ccc(Cl)cc1` (centres undefined) are 5% (inactive) and -5%.
Take `COC(=O)c1ccc(Cl)c2c1C1C=CCC1C(c1cccc3ccccc13)N2` (centres undefined): the inhibition at 11.1 µM in data set [1] was 110% (active). Besides, the inhibition at 1.1 µM in data set [2] came to 10%.
As to `COc1ccc(C2c3ccc4ccccc4c3Oc3ncn(CCCn4ccnc4)c(=N)c32)cc1OC` (centres undefined), the inhibition at 11.1 µM in data set [1] was determined as 25%. The inhibition at 1.1 µM in data set [2] came out at 23%.
The matching figures for `CN(N=O)C1=C(NC2CCCCC2)C(=O)c2ccccc2C1=O`: 70% (active) and -2%.
For the molecule `CCOC(=O)C1=C(C)N=c2sc(=Cc3ccccc3O)c(=O)n2C1c1ccc(OC)c2ccccc12` (centres undefined), in data set [1], the inhibition at 11.1 µM was 2% (inactive). In addition, the inhibition at 1.1 µM in data set [2] amounted to 13%.
Turning to `CCOc1ccc(N2C(N)=NC(N)=NC2(C)C)cc1`, the inhibition at 11.1 µM in data set [1] is 6% (inactive). Further, in data set [2], the inhibition at 1.1 µM was 12%.
On the same counts, the results for `CCCCCCc1cc2cc(-c3csc(C=Cc4ccccc4)n3)c(=O)oc2cc1O` are 93% and 81%.
The matching figures for `O=c1nc(C=Cc2ccc(Br)cc2)oc2ccccc12`: 16% (inactive) and 8%.
On the same counts, the results for `CC(=O)c1ccc(NC(=O)CSc2nc(-c3ccccc3Cl)ns2)cc1` are 7% (inactive) and -6%.
In the case of `O=[N+]([O-])c1ccc(C=NNc2nc3ccccc3[nH]2)cc1`, in data set [1], the inhibition at 11.1 µM came out at 44%. In addition, the inhibition at 1.1 µM in data set [2] came out at 15%.
On the same counts, the results for `CCOC(=O)C1=C(c2ccccc2)N=c2sc(=Cc3cc(C)n(-c4ccc(F)cc4)c3C)c(=O)n2C1c1cccc(OC)c1OC` (centres undefined) are 11% (inactive) and 3%.
The matching figures for `COc1cccc(C=Cc2nc(=O)c3ccccc3o2)c1OC`: -4% (inactive) and -3%.
Take `COc1ccc(CCn2c(=N)c(C(=O)NCc3cccnc3)cc3c(=O)n4cccc(C)c4nc32)cc1`: the inhibition at 11.1 µM in data set [1] is 14% (inactive). Also, the inhibition at 1.1 µM in data set [2] was 19%.
Take `COc1ccc(C=C2SC(=N)N(c3ccccc3OC)C2=O)cc1`: the inhibition at 11.1 µM in data set [1] is 43%. Besides, in data set [2], the inhibition at 1.1 µM worked out at 7%.
On to `CCOC(=O)c1c(C)n(-c2ccc(Cl)cc2)c2ccc(OC(=O)C=Cc3ccccc3)cc12`, for which the inhibition at 11.1 µM in data set [1] is 9% (inactive). Besides, the inhibition at 1.1 µM in data set [2] was found to be 2%.
The matching figures for `COc1ccccc1C(=O)ON=C(N)Cc1cccc2ccccc12`: 34% and 2%.
The matching figures for `COc1cc(C(=O)ON=C(N)Cc2cccc3ccccc23)cc(OC)c1OC`: 89% (active) and 26%.
Regarding `Cc1cc(C=C2SC(=Nc3ccccc3)N(C3CCCC3)C2=O)c(C)n1-c1ccc(Cl)cc1`, in data set [1], the inhibition at 11.1 µM was -5% (inactive). Also, the inhibition at 1.1 µM in data set [2] was 5%.
With `CC(C)(C)c1ccc(C(=O)Nc2c3c(nn2-c2cccc(Cl)c2)CSC3)cc1`, in data set [1], the inhibition at 11.1 µM is 0% (inactive). Also, the inhibition at 1.1 µM in data set [2] amounted to 4%.
On the same counts, the results for `CN(C)c1ccc(N2C(N)=NC(N)=NC2(C)C)cc1` are 11% (inactive) and 10%.
The matching figures for `CC1=C(CC(=O)c2cccc([N+](=O)[O-])c2)C(=O)c2ccccc2C1=O`: 17% (inactive) and 9%.
The matching figures for `CCCCCCc1cc2cc(-c3nc4ccccc4[nH]3)c(=Nc3ccccc3C)oc2cc1O`: -1% (inactive) and 2%.
For the molecule `Nc1ccn([C@@H]2O[C@H](CO)[C@@H](O)[C@H]2O)c(=O)n1` [CYTIDINE], in data set [1], the inhibition at 11.1 µM is 8% (inactive). Also, the inhibition at 1.1 µM in data set [2] amounted to 0%.
Regarding `O=C(Nc1cccc(C2=NCCN2)c1)Nc1cccc(C2=NCCN2)c1` [IMIDOCARB], in data set [1], the inhibition at 11.1 µM came out at 110%. Also, in data set [2], the inhibition at 1.1 µM was 59%.
The matching figures for `CN(C)c1ccc(C(O)(c2ccc(N(C)C)cc2)c2ccc(N(C)C)cc2)cc1` [METHYLROSANILINE]: 103% (active) and 48%.

By inhibition is commonly meant the drop in the measured response relative to a control, in per cent.

These data come from ChEMBL document CHEMBL3301458, “MMV Malaria Box hERG screening”.
